How the values were obtained:
[1] = test system: cefepime-resistant β-lactamase-producing pathogens; parameters: method as in ref 15, 16 = [15]; 15 Georgiou P-C , Siopi M , Tsala M , Lagarde C , Kloezen W , Donnelly R , Meletiadis J , Mouton J . 2018 . VNRX-5133, a novel broad-spectrum beta-lactamase inhibitor, enhances the activity of cefepim || [16]; 16 Weiss W , Pulse M , Nguyen P , Valtierra D , Peterson K , Carter K , Pevear D , Burns C , Xerri L . 2018 . Efficacy of cefepime/VNRX-5133, a novel beta-lactamase inhibitor combination, against ceph; details: cited from earlier work
[2] = test system: Enterobacterales isolates; parameters: method as in ref 13, 14 = [13]; 13 Vidales A , Hackel M , Wise M , Sahm D . 2020 . Antimicrobial activity of cefepime in combination with taniborbactam (formerly VNRX-5133) against clinical isolates of Enterobacterales collected fro || [14]; 14 Kalamatas J , Hackel M , Wise M , Sahm D . 2020 . Antimicrobial activity of cefepime in combination with taniborbactam (formerly VNRX-5133) against a 2018–2019 surveillance collection of Pseudomona; details: cited from earlier work
[3] = test system: Pseudomonas aeruginosa isolates; parameters: method as in ref 13, 14 = [13]; 13 Vidales A , Hackel M , Wise M , Sahm D . 2020 . Antimicrobial activity of cefepime in combination with taniborbactam (formerly VNRX-5133) against clinical isolates of Enterobacterales collected fro || [14]; 14 Kalamatas J , Hackel M , Wise M , Sahm D . 2020 . Antimicrobial activity of cefepime in combination with taniborbactam (formerly VNRX-5133) against a 2018–2019 surveillance collection of Pseudomona; details: cited from earlier work
[4] = Multiple-ascending-dose (MAD) pharmacokinetics in plasma and urine, healthy adult volunteers; type: in vivo, human; details: for AUCtau / Cmax / CLR,SS / CLSS / Vz / t1/2 / Ae / Fe: mean (%CV); for Tmax: median (range); for t1/2: terminal elimination; for Ae / Fe: urine through the dosing interval (8 h); for AUCtau mean ratio, last dose compared to first dose: day 10 vs day 1
Experimental: Eligible subjects were randomized to receive either taniborbactam or placebo in a 3:1 ratio within dose cohorts in both the SAD and MAD parts of the study. Each dose cohort in the SAD part of the study enrolled 8 subjects, and each dose cohort in the MAD part of the study enrolled 12 subjects. In the SAD part, subjects received 62.5, 125, 250, 500, 1,000, or 1,500 mg taniborbactam as a 2-h intravenous (i.v.) infusion. In the MAD part, subjects received 2-h intravenous i.v. infusions of 250, 500, or 750 mg taniborbactam q8h over 10 days, ending after a final morning dose on day 10 (total of 28 doses).
Blood samples for assay of taniborbactam in plasma were collected predose and at 1, 2, 2.25, 2.5, 2.75, 3, 4, 6, 8, 12, 26, and 50 h after the start of drug infusion in the SAD part. For the MAD part, blood samples to determine taniborbactam plasma concentrations were collected predose and at 1, 2, 2.25, 2.5, 2.75, 3, 4, 6, and 8 h following the first dose (day 1) and predose and at 1, 2, 2.25, 2.5, 2.75, 3, 4, 6, 10, 14, and 26 h following the last dose (day 10). Urine was collected predose and at intervals of 0 to 4, 4 to 8, 8 to 24, and 24 to 48 h after the start of the infusion in the SAD part for the higher-dose groups (500 to 1,500 mg taniborbactam). For the MAD part, urine was collected through the dosing interval following the last dose using collection intervals of 0 to 4 and 4 to 8 h after the start of the infusion. At the end of each urine collection interval, the volume of each urine collection was recorded and a sample was taken.
Plasma and urine samples were assayed for taniborbactam and screened for possible metabolites. Human dipotassium ethylenediaminetetraacetic acid (K2EDTA) plasma samples were processed using protein precipitation and assayed using ultra-high-performance liquid chromatography with tandem mass spectrometric detection (LC-MS/MS). Both low- and high-range methods were developed and validated for plasma samples, with calibration ranges of 5 to 5,000 ng/ml and 100 to 100,000 ng/ml, respectively. Acidified urine samples were processed using solid-phase extraction and assayed using a validated LC-MS/MS method with a calibration range of 5.0 to 5,000 ng/ml. For both matrices, separation was accomplished using a Waters Acquity HSS T3 column (Milford, MA) at 50°C, and gradient elution using 10 mM ammonium formate with 1% formic acid as mobile phase A and 50:50:1 acetonitrile:methanol:formic acid (vol/vol/vol) as mobile phase B. A triple quadrupole mass spectrometer (API Triple Quad 5500; AB Sciex, Framingham, MA) equipped with a turbo-ion spray set was used for detection in positive ion mode, and quantification was based on multiple reaction monitoring. The internal standard used in the assays was D4-taniborbactam.
Individual subject plasma and urine taniborbactam pharmacokinetic parameters were evaluated using noncompartmental analysis methods (Phoenix WinNonlin, Certara, Princeton, NJ). Single-dose pharmacokinetic parameters were determined in the SAD part, and both single-dose (day 1) and multiple-dose (day 10) pharmacokinetic parameters were determined in the MAD part. Estimated pharmacokinetic parameters included Cmax, time to Cmax (Tmax), AUCtau, AUC0–inf, t1/2, CL, VZ, Ae, Fe, and CLR. The actual sample times were used to calculate the pharmacokinetic parameters. Calculation of λZ was based on best fit of concentrations in the observed terminal elimination phase of a profile, and statistical inclusion of any parameter based on λZ required the goodness of fit statistic (R^2) to be greater than 0.8. Pharmacokinetic data were summarized using descriptive statistics by treatment. Dose proportionality based on Cmax and AUC was determined using linear regression to calculate the slope and 90% CI and observing whether a slope of 1 was included in the confidence interval. The dose proportionality analysis included subject body weight as a covariate in the analysis.

NCCN[C@H]1CC[C@H](CC(=O)N[C@H]2Cc3cccc(C(=O)O)c3OB2O)CC1 [Taniborbactam]
in vivo efficacy of cefepime [1]: restored the in vivo efficacy of cefepime
potentiation of cefepime activity as measured by the MIC90 [2]: at least 128 fold
potentiation of cefepime activity as measured by the MIC90 [3]: 4 fold
AUCtau ([4]; 250 mg q8h, day 1): 34,447 (17.2) h · ng/ml
Cmax ([4]; 250 mg q8h, day 1): 10,544 (18.3) ng/ml
Tmax ([4]; 250 mg q8h, day 1): 2.0 (2.0, 2.1) h
AUCtau ([4]; 250 mg q8h, day 10): 41,563 (15.1) h · ng/ml
CLR,SS ([4]; 250 mg q8h, day 10): 5.2 (17.3) liters/h
CLSS ([4]; 250 mg q8h, day 10): 6.2 (15.9) liters/h
Cmax ([4]; 250 mg q8h, day 10): 11,188 (16.5) ng/ml
Vz ([4]; 250 mg q8h, day 10): 36.0 (28.3) liters
Tmax ([4]; 250 mg q8h, day 10): 2.0 (2.0, 2.1) h
t1/2 ([4]; 250 mg q8h, day 10): 4.1 (29.3) h
Ae ([4]; 250 mg q8h, day 10): 211.0 (11.8) mg
Fe ([4]; 250 mg q8h, day 10): 84.4 (11.8) %
Fe ([4]; 250 mg q8h, day 10, listed as taniborbactam): 84.4%
AUCtau mean ratio, last dose compared to first dose ([4]; 250 mg q8h): 1.21
AUCtau ([4]; 500 mg q8h, day 1): 81,890 (14.7) h · ng/ml
Cmax ([4]; 500 mg q8h, day 1): 25,778 (15.2) ng/ml
Tmax ([4]; 500 mg q8h, day 1): 2.0 (2.0, 2.1) h
AUCtau ([4]; 500 mg q8h, day 10): 89,103 (13.8) h · ng/ml
CLR,SS ([4]; 500 mg q8h, day 10): 5.3 (14.2) liters/h
CLSS ([4]; 500 mg q8h, day 10): 5.7 (12.6) liters/h
Cmax ([4]; 500 mg q8h, day 10): 26,533 (13.0) ng/ml
Vz ([4]; 500 mg q8h, day 10): 39.8 (14.3) liters
Tmax ([4]; 500 mg q8h, day 10): 2.0 (2.0, 2.3) h
t1/2 ([4]; 500 mg q8h, day 10): 4.9 (13.3) h
Ae ([4]; 500 mg q8h, day 10): 462.2 (10.2) mg
Fe ([4]; 500 mg q8h, day 10): 92.4 (10.2) %
Fe ([4]; 500 mg q8h, day 10, listed as taniborbactam): 92.4%
AUCtau mean ratio, last dose compared to first dose ([4]; 500 mg q8h): 1.09
AUCtau ([4]; 750 mg q8h, day 1): 119,140 (18.0) h · ng/ml
Cmax ([4]; 750 mg q8h, day 1): 39,122 (23.7) ng/ml
Tmax ([4]; 750 mg q8h, day 1): 2.0 (2.0, 2.3) h
AUCtau ([4]; 750 mg q8h, day 10): 139,518 (21.6) h · ng/ml
CLR,SS ([4]; 750 mg q8h, day 10): 5.2 (28.6) liters/h
CLSS ([4]; 750 mg q8h, day 10): 5.6 (21.1) liters/h
Cmax ([4]; 750 mg q8h, day 10): 38,778 (18.2) ng/ml
Vz ([4]; 750 mg q8h, day 10): 37.4 (19.9) liters
Tmax ([4]; 750 mg q8h, day 10): 2.0 (2.0, 2.3) h
t1/2 ([4]; 750 mg q8h, day 10): 4.7 (15.4) h
Ae ([4]; 750 mg q8h, day 10): 692.2 (21.7) mg
Fe ([4]; 750 mg q8h, day 10): 92.3 (21.7) %
Fe ([4]; 750 mg q8h, day 10, listed as taniborbactam): 92.3%
AUCtau mean ratio, last dose compared to first dose ([4]; 750 mg q8h): 1.17
administered dose recovered in urine as intact drug ([4]; at steady state): approximately 90%

Source: publication PMC8522722, “Safety and Pharmacokinetics in Human Volunteers of Taniborbactam (VNRX-5133), a Novel Intravenous β-Lactamase Inhibitor” (Antimicrobial Agents and Chemotherapy, 2021)
